From article PMC12364333, “Degradation of catecholate, hydroxamate, and carboxylate model siderophores by extracellular enzymes” (PLOS One, 2025)

Tested on: T1, phenol oxidase (a tyrosinase)
T1 construct: gene PPO3
Experiment: initial rates of product formation ([…] h); Lineweaver-Burk plot
Format: biochemical, Agaricus bisporus
Details: O2 as oxidant; buffered at pH 7.0 (25 mM phosphate) and 20 °C in the general protocol; 0.01-1 mM protochelin; apo siderophore

Km: 430 µM
SMILES: O=C(NCCCCNC(=O)[C@H](CCCCNC(=O)c1cccc(O)c1O)NC(=O)c1cccc(O)c1O)c1cccc(O)c1O [protochelin]
